As usually defined, the IC50 is the concentration needed to halve the response being measured.

Where only a bound is given, the exact number is not on record here.

The target in the assay is T1, Fatty-acid amide hydrolase 1 (Mus musculus, UniProt O08914).
T1 sequence (O08914 whole entry): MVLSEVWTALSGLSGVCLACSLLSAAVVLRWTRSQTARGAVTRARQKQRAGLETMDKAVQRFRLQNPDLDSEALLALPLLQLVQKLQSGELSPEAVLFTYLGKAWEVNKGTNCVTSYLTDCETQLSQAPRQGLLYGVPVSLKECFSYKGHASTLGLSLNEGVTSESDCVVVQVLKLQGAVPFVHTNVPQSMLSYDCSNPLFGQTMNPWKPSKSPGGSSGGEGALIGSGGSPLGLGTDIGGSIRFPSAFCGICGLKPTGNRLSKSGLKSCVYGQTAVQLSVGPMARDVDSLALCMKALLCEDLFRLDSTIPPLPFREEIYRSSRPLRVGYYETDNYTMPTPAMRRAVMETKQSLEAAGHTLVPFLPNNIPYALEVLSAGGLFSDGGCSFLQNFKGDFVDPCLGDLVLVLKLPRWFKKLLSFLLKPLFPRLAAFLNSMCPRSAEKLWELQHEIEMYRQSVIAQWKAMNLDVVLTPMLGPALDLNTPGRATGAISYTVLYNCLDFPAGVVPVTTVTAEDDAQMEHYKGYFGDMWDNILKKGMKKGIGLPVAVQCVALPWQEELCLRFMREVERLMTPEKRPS
Put plainly: In Vitro Competitive Activity-Based Protein Profiling: Proteomes (mouse brain membrane fraction or cell lysates) (50 μL, 1.0 mg/mL total protein concentration) were preincubated with varying concentrations of inhibitors at 37° C. After 30 min, FP¿Rh (1.0 μL, 50 μM in DMSO) was added and the mixture was incubated for another 30 min at 37° C. Reactions were quenched with SDS loading buffer (50 μL-4×) and run on SDS-PAGE. Following gel imaging, serine hydrolase activity was determined by measuring fluorescent intensity of gel bands corresponding to MAGL, ABHD6 and FAAH using ImageJ 1.43u software.

Consider `O=C(OC(C(F)(F)F)C(F)(F)F)N1CCC2(CCCN2Cc2ccc(OCCN3CCOCC3)cc2)CC1`, for which the IC50 is above 1000 nM.

For the origin of these results see ChEMBL document CHEMBL5725658, “Spirocycle compounds and methods of making and using same” (2018).
